Columns and labels:
[1] = system: human progesterone receptor isoform PR-B; test: PR-B transactivation of MMTV-LUC reporter, transient transfection; assay type: cell-based; conditions: 10^-7 M progesterone
Method: The cells were then incubated with either progesterone or an inert vehicle (ethanol (ETOH)). Western immunoblot analysis using two PR specific monoclonal antibodies (B30 and AB52, available from Dean Edwards, University of Colorado) confirmed that no hPR-A was synthesized from our PR-B constructs.

[2] = system: glucocorticoid receptor (GR); test: GR transcriptional activity on MMTV-LUC, CV-1 cells, GR co-expressed with PR-A; assay type: cell-based; conditions: 1440 min
Method: (§1) Cells were seeded in 12-well, 96-well or 10 cm tissue culture plates. […] 20 μg of DNA/ml of transfection buffer were used in each transfection reaction. In this mix, the concentration of the luciferase plasmids and that of the internal control plasmid pCH110 (Pharmacia, Inc.), which contains the gene for the β-galactosidase enzyme, remained constant ([…] of each plasmid DNA), while the receptor plasmid concentration varied as indicated for each experiment. Different amounts of receptor parental plasmid, pSV2-neo (Dr. Bert O'Malley, Baylor College of Medicine, Houston, Tex.) was included to keep constant the total amount of the SV40 enhancer vectors. pGEM4 plasmid DNA (Promega Biotech, Madison, Wis.) was added to balance the total DNA concentration to 20 g/reaction. For the 96-well plate experiments, transfections were performed on a Biomek 1000 Automated Laboratory Workstation (Beckman Instruments, Fullerton, Calif.).
(§2) Cells were seeded 24 hours prior to transfection in the fiat-bottom tissue culture plates ([…]) in phenol red-free DMEM containing 10% FCS. […] Using calcium phosphate co-precipitation, DNA solution was added dropwise with vortexing into an equal volume of 2X HBS pH 6.9 (280 mM NaCl. 50 mM HEPES, 1.5 mM Na2 HPO4) and precipitates were allowed to form for 20 minutes. Cells were transfected ( […] of DNA mix/well) for 6 hours and then washed with phosphate-bufferedsaline (PBS) to remove the precipitate. Cells were incubated for an additional 24 hours in phenol red-free medium containing 10% charcoal-treated FCS, with or without hormones as indicated in the text. Cell extracts were prepared as described by Berger et al., Supra, and assayed for luciferase and β-galactosidase activities. All determinations were performed in triplicates in at least two independent experiments, and were normalized for transfection efficiency by using β-galactosidase as an internal control.

[3] = system: glucocorticoid receptor (GR); test: GR transcriptional activity on MMTV-LUC, CV-1 cells, GR co-expressed with PR-B; assay type: cell-based; conditions: progesterone and dexamethasone, FIG. 5B
Method: as §1
Cells were seeded 24 hours prior to transfection in the fiat-bottom tissue culture plates ([…]) in phenol red-free DMEM containing 10% FCS. […] Using calcium phosphate co-precipitation, DNA solution was added dropwise with vortexing into an equal volume of 2X HBS pH 6.9 (280 mM NaCl. 50 mM HEPES, 1.5 mM Na2 HPO4) and precipitates were allowed to form for 20 minutes. […]

human vitamin D receptor = test: VDR transcriptional activity on VDRE2 tk-LUC with PR-A, CV-1 cells; assay type: cell-based; conditions: absence or presence of progesterone, FIG. 7
Excerpt: The data shown represent the mean value +/- the average deviation from the mean of triplicate determinations;
To analyze the specificity of PR-A action, we examined its ability to affect other receptor-dependent transcription systems. For this purpose, phPR-A was cotransfected with a vector expressing the vitamin D receptor (VDR) and assayed on a VDRE2 tk-LUC reporter (available from Dr. J. Wesley Pike, Ligand Pharmaceuticals, Inc.).

[4] = system: PR-B (co-expressed with PR-A587); test: Repression of PR-B mediated MMTV-LUC transcription by DNA binding mutant PR-A587, CV-1 cells; assay type: cell-based, human; conditions: equimolar phPR-A587 and phPR-B DNA, 10^-7 M progesterone, FIG. 9
Method: The relative luciferase activity is calculated by dividing the normalized luciferase value at a given point by that obtained in the absence of transfected receptor or ligand.
as §1
Cells were seeded 24 hours prior to transfection in the fiat-bottom tissue culture plates ([…]) in phenol red-free DMEM containing 10% FCS. […]

[5] = biological target: T1, glucocorticoid receptor (GR) (Homo sapiens, UniProt P04150); conditions: high concentrations, dexamethasone present, FIG. 8B
T1 sequence (P04150 1-777): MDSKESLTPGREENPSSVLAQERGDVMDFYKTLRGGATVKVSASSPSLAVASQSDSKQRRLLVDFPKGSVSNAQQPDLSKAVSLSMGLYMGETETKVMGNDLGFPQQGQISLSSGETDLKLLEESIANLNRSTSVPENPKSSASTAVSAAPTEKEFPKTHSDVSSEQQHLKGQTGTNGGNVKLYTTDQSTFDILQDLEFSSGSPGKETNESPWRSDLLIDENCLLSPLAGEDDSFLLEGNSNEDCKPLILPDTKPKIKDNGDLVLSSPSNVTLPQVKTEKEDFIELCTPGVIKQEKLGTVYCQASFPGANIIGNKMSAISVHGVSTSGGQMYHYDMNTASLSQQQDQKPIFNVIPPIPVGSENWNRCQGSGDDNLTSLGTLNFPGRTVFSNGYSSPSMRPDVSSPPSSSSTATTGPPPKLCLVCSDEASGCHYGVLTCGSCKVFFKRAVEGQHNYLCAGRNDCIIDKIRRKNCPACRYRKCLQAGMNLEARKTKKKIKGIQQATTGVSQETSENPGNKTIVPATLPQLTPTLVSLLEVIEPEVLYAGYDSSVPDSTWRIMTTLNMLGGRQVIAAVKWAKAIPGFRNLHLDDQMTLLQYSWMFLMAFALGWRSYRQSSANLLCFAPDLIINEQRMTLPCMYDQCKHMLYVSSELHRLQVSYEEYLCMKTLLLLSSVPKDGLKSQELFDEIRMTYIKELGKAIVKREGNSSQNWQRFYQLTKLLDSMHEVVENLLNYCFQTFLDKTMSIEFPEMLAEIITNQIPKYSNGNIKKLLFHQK
Method: as §1, §2

PR = conditions: cited from earlier work

CC(=O)[C@H]1CC[C@H]2[C@@H]3CCC4=CC(=O)CC[C@]4(C)[C@H]3CC[C@]12C [progesterone]
progesterone mediated activation of the MMTV promoter ([1]; CV-1 cells, PR-B, FIG. 2A): permitted progesterone mediated activation of the MMTV promoter | activation of the MMTV promoter by PR-B ([1]; HepG2 cells, FIG. 2C): both PR-A and PR-B functioned as efficient activators | reduction in GR activity ([2]; GR and PR-A, 10^-9 M progesterone, 5×10^-8 M dexamethasone, FIG. 6, 0.001 µM): 50% | GR activity, of induced control levels ([2]; presence of progesterone and dexamethasone, PR-A co-expressed, FIG. 5A, 0.1 µM): 2% | effect of PR-B co-expression on GR function [3]: minimal effects on GR function | effect of PR-A co-expression on hormone-dependent transactivation by VDR (human vitamin D receptor): not substantially affected | reduction of transcriptional activity of PR-B [4]: 90%

CC#C[C@]1(O)CC[C@H]2[C@@H]3CCC4=CC(=O)CCC4=C3[C@@H](c3ccc(C(C)=O)cc3)C[C@@]21C [ZK112993]
direct inhibition of GR function [5]: directly inhibited GR function | effect on PR DNA binding (PR): promotes the association of PR with DNA

Source: patent US5506102A (priority 1993, dated 1996)
